Patent US20130059890A1, “ANTIVIRAL AGENTS” (SYDNEY WEST AREA HEALTH SERVICE, priority 2009, published 2013)
Entries after “also recorded” stand apart in the source; their conditions may differ.

Tested on: HCV (JFH-1) infected Huh7 cells
Conditions: 24 hours; for effect on HCV replication (in words): HCV RNA by qPCR (FIG. 9; discussion)
Text: Huh7 cells were infected with the JFH-1 strain of hepatitis C virus (genotype 2a) as previously described in Wakita et al., (2005), “Production of infectious hepatitis C virus in tissue culture from a cloned viral genome”, Nat. Med., 11(7):791-796). Briefly, pJFH-1 plasmids encoding full length HCV genome (provided by T. Wakita, National Institute of Infectious Diseases, Japan) were linearized and HCV RNA was synthesized using T7 RiboMAX™ Express Large Scale RNA Production System (Promega). 10 μg of HCV RNA was added to 1.6×10^6 Huh7 cells suspended in 800 ul PBS buffer. A Bio-Rad Gene Pulser system was used to deliver a single pulse at 0.34 kV, 975 μF, using 4 mm electroporation cuvettes. Cells were cultured at 37° C. in a 5% CO2 atmosphere in Dulbecco's modified Eagle's medium (DMEM) supplemented with 10% fetal bovine serum for 10 days (Gibco).
HCV RNA was amplified from infected Huh7 cells using specific primers targeting the 5′ noncoding region under the following conditions: 10 min at 95° C.; 40 cycles of 94° C. for 15 s and 60° C. for 45 s. Samples were analysed in triplicate and relative expression of HCV RNA normalised to 18s.
JFH-1 infected Huh7 cells cultured in 6 well plates were treated with HU-210 (100 nM), either alone or with increasing concentrations of the antagonists NlDA-41020 or (S)-SLV-319 (1 nM, 10 nM, 100 nM and 1 μM). Untreated cells and cells treated with CB1 antagonist alone (100 nM) were used as controls. After 24 hours cells were harvested, total RNA extracted, and HCV RNA measured by qPCR. Three replicate experiments were performed for each set of conditions and mean values calculated.

| Compound | effect on HCV replication (in words) | increase of HCV replication (HU-210 100 nM, HCV RNA by qPCR normalised to 18s (FIG. 7)) |
| --- | --- | --- |
| CN=C(NS(=O)(=O)c1ccc(Cl)cc1)N1C[C@H](c2ccccc2)C(c2ccc(Cl)cc2)=N1 [(S)-SLV-319, 3-(4-chlorophenyl)-N-[(4-chlorophenyl)sulfonyl]-4,5-dihydro-N′-methyl-4-phenyl-1H-pyrazole-1-carboximidamide] | inhibit HCV replication in a dose-dependent manner; also recorded: inhibited | – |
| CCCCCCC(C)(C)c1cc(O)c2c(c1)OC(C)(C)[C@@H]1CC=C(CO)C[C@@H]21 [HU-210] | stimulated | 40% |
